# Like-named read-outs stand apart in the source and are kept apart here.
# Assays:
# [1] = target: T1, human 5-hydroxytryptamine-2C (h5-HT2C) receptor (Homo sapiens, UniProt P28335); assay: [125I]DOI binding to membranes of CHO cells expressing the human 5-HT2C receptor; conditions: [125I]DOI radioligand, CHO cell membranes, room temperature 60 min; read-out: 5-HT2C Affinity Ki
# T1 construct: expressed in transfected cells; host or cells: CHO (Chinese Hamster Ovary) cells; membranes
# T1 sequence (P28335 33-458): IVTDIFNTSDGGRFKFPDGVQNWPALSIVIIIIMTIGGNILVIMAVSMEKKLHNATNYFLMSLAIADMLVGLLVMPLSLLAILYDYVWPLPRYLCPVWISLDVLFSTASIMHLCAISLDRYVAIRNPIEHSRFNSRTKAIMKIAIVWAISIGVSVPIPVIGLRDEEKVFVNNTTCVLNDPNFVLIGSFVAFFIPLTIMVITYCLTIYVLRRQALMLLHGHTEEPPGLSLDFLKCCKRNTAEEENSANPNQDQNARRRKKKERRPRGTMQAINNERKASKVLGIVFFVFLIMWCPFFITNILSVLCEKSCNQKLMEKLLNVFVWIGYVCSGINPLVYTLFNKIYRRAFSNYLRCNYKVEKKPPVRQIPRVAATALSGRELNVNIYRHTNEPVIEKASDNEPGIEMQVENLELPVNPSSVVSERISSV
# human 5-HT2C receptor = target: T2, human 5-HT2C receptor (Homo sapiens, UniProt P28335); assay: 5-HT2C receptor-stimulated calcium mobilization (FLIPR) in CHO cells; type: cell-based; conditions: for EC50: calcium mobilization, CHO cells stably expressing human 5-HT2C, read-out: 5-HT2C Function EC50; for Emax: CHO;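 on all read-outs here: Fluo-3-AM fluorescence read on FLIPR every 1 s, agonist added after 10 baseline reads, response taken as peak minus lowest raw fluorescence count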
# T2 sequence (P28335 33-458): T1 sequence (P28335 33-458)
# [2] = percentage of the response observed with a maximally effective concentration of 5-HT
# [3] = percentage of the response observed with a maximally effective concentration of 5-HT, read-out: 5-HT2C Function Emax (%)
# [4] = read-out: 5-HT2C Function Emax (%), percentage of the response observed with a maximally effective concentration of 5-HT
Ki [1] [nM],EC50 (human 5-HT2C receptor) [nM],5-HT2C Function Emax (%) (human 5-HT2C receptor; [2]),Emax (human 5-HT2C receptor; [3]) [%],Compound,Emax (human 5-HT2C receptor; [4]) [%]
1.1,27,100,–,"NCC1Cc2cc(F)cc(-c3ccccc3C(F)(F)F)c2O1 (single isomer, unassigned; (-)) [Example 151, (−)-1-{5-fluoro-7-[2-(trifluoromethyl)phenyl]-2,3-dihydro-1-benzofuran-2-yl}methanamine]",–
0.2,5,–,100,"CNCC1Cc2cc(C)cc(-c3ccccc3Cl)c2O1 (racemic) [Example 476, (±)-{[7-(2-chlorophenyl)-5-methyl-2,3-dihydro-1-benzofuran-2-yl]methyl}methylamine]",–
1,7.9,–,100,"NCC1Cc2cccc(-c3ccc(Cl)cc3Cl)c2O1 (racemic) [Example 83, (±)-1-[7-(2,4-dichlorophenyl)-2,3-dihydro-1-benzofuran-2-yl]methanamine]",–
100,748,80,–,"Cc1cccc(-c2cccc3c2OC(CN)C3)c1 (single isomer, unassigned; (-)) [Example 43, (−)-1-[7-(3-methylphenyl)-2,3-dihydro-1-benzofuran-2-yl]methanamine]",–
71,79,100,–,"CC(C)(C)c1cccc2c1OC(CN)C2 (single isomer, unassigned; (+)) [Example 26, (+)-1-(7-tert-butyl-2,3-dihydro-1-benzofuran-2-yl)methanamine]",–
0.21,3,–,100,"COc1cc2c(c(-c3cc(Cl)ccc3Cl)c1)OC(CN)C2 (racemic) [Example 367, (±)-{[7-(2,5-dichlorophenyl)-5-methoxy-2,3-dihydro-1-benzofuran-2-yl]methyl}amine]",–
1,65,–,100,"Cc1ccccc1-c1cc(Cl)cc2c1OC(CN)C2 (racemic) [Example 95, (±)-1-[5-chloro-7-(2-methylphenyl)-2,3-dihydro-1-benzofuran-2-yl]methanamine]",–
1.7,43,–,90,"Cc1cc2c(c(-c3ccccc3C)c1)OC(CN)C2 (racemic) [Example 282, (±)-{[7-(2-methylphenyl)-5-methyl-2,3-dihydro-1-benzofuran-2-yl]methyl}amine]",–
7,996,–,80,"NCC1Cc2cc(F)cc(-c3ccccc3)c2O1 (racemic) [Example 103, (±)-1-(5-fluoro-7-phenyl-2,3-dihydro-1-benzofuran-2-yl)methanamine]",–
0.88,0.7,–,100,"NCC1Cc2cccc(-c3cccnc3)c2O1 (single isomer, unassigned; (+)) [Example 171, (+)-{[7-pyridin-3-yl-2,3-dihydro-1-benzofuran-2-yl]methyl}amine]",–
0.2,120,–,100,"NCC1Cc2cc(F)cc(-c3ccccc3Cl)c2O1 (racemic) [Example 100, (±)-1-[7-(2-chlorophenyl)-5-fluoro-2,3-dihydro-1-benzofuran-2-yl]methanamine]",–
5,45,–,100,"NCC1Cc2cc(Cl)cc(-c3ccsc3)c2O1 (single isomer, unassigned; (-)) [Example 91, (−)-(5-chloro-7-thien-3-yl-2,3-dihydro-1-benzofuran-2-yl)methylamine]",–
4.1,74,100,–,"NCC1Cc2cccc(-c3ccc(Cl)cc3Cl)c2O1 (single isomer, unassigned; (+)) [Example 150, (+)-1-[7-(2,4-dichlorophenyl)-2,3-dihydro-1-benzofuran-2-yl]methanamine]",–
83,5760,70,–,"NCC1Cc2cccc(-c3cccc(Cl)c3)c2O1 (single isomer, unassigned; (-)) [Example 67, (−)-1-[7-(3-chlorophenyl)-2,3-dihydro-1-benzofuran-2-yl]methanamine]",–
0.3,0.72,–,90,"NCC1Cc2cccc(-c3c(Cl)cccc3Cl)c2O1 (racemic) [Example 140, (±)-1-[7-(2,6-dichlorophenyl)-2,3-dihydro-1-benzofuran-2-yl]methanamine]",–
13,70,–,90,"COc1ccc(-c2cc(C(F)(F)F)cc3c2OC(CN)C3)c(OC)c1 (racemic) [Example 333, (±)-{[7-(2,4-dimethoxyphenyl)-5-(trifluoromethyl)-2,3-dihydro-1-benzofuran-2-yl]methyl}amine]",–
1.2,473,90,–,"NCC1Cc2cccc(-c3ccc(C(F)(F)F)cc3)c2O1 (single isomer, unassigned; (+)) [Example 137, (+)-1-{7-[4-(trifluoromethyl)phenyl]-2,3-dihydro-1-benzofuran-2-yl}methanamine]",–
8,30,–,90,"NCC1Cc2cc(F)cc(-c3cc(F)ccc3F)c2O1 (racemic) [Example 220, (±)-{[7-(2,5-difluorophenyl)-5-fluoro-2,3-dihydro-1-benzofuran-2-yl]methyl}amine]",–
38,740,–,50,"CNCC1Cc2cc(F)cc(-c3cc(C)ccc3OC)c2O1 (racemic) [Example 457, (±)-{[5-fluoro-7-(2-methoxy-5-methylphenyl)-2,3-dihydro-1-benzofuran-2-yl]methyl}methylamine]",–
1,2,–,90,"CNCC1Cc2cc(F)cc(-c3cc(Cl)ccc3Cl)c2O1 (racemic) [Example 449, (±)-{[7-(2,5-dichlorophenyl)-5-fluoro-2,3-dihydro-1-benzofuran-2-yl]methyl}methylamine]",–
2.4,68,–,70,"CNCC1Cc2cc(F)cc(-c3ccccc3F)c2O1 (racemic) [Example 438, (±)-{[5-fluoro-7-(2-fluorophenyl)-2,3-dihydro-1-benzofuran-2-yl]methyl}methylamine]",–
4.9,3,–,90,"NCC1Cc2cc(Cl)cc(-c3cccnc3)c2O1 (racemic) [Example 266, (±)-{[(5-chloro-7-pyridin-3-yl-2,3-dihydro-1-benzofuran-2-yl)methyl]amine]",–
13,24,–,100,"COc1ccc(OC)c(-c2cccc3c2OC(CN)C3)c1 (racemic) [Example 162, (±)-{[7-(2,5-dimethoxyphenyl)-2,3-dihydro-1-benzofuran-2-yl]methyl}amine]",–
1.5,75,–,80,"CNCC1Cc2cc(C)cc(-c3ccc(Cl)cc3)c2O1 (racemic) [Example 481, (±)-{[7-(4-chlorophenyl)-5-methyl-2,3-dihydro-1-benzofuran-2-yl]methyl}methylamine]",–
18,10,–,90,"CC(C)(C)c1cccc2c1OC(CN)C2 (single isomer, unassigned; (-)) [Example 25, (−)-1-(7-tert-butyl-2,3-dihydro-1-benzofuran-2-yl)methanamine]",–
35,475,–,60,"CNCC1Cc2cc(OC)cc(-c3cccc(F)c3F)c2O1 (racemic) [Example 494, (±)-{[7-(2,3-difluorophenyl)-5-methoxy-2,3-dihydro-1-benzofuran-2-yl]methyl}methylamine]",–
3.3,14,–,90,"NCC1Cc2cccc(-c3cccnc3)c2O1 (racemic) [Example 170, (±)-[(7-pyridin-3-yl-2,3-dihydro-1-benzofuran-2-yl)methyl]amine]",–
0.46,6,90,–,"CNCC1Cc2cccc(-c3ccccc3C)c2O1 (single isomer, unassigned; (+)) [Example 408, (+)-N-methyl-1-[7-(2-methylphenyl)-2,3-dihydro-1-benzofuran-2-yl]methanamine]",–
25,50,–,90,"CNCC1Cc2cc(C(F)(F)F)cc(-c3ccc(OC)cc3OC)c2O1 (racemic) [Example 526, (±)-N-methyl-1-[7-(2,4-dimethoxyphenyl)-5-(trifluoromethyl)-2,3-dihydro-1-benzofuran-2-yl]methanamine]",–

Compound,Ki [1] [nM],EC50 (human 5-HT2C receptor) [nM],5-HT2C Function Emax (%) (human 5-HT2C receptor; [2]),Emax (human 5-HT2C receptor; [3]) [%],Emax (human 5-HT2C receptor; [4]) [%]
"CNCC1Cc2cc(F)cc(-c3c(Cl)cccc3Cl)c2O1 (racemic) [Example 454, (±)-{[7-(2,6-dichlorophenyl)-5-fluoro-2,3-dihydro-1-benzofuran-2-yl]methyl}methylamine]",0.26,0.39,–,–,90
"CNCC1Cc2cc(F)cc(-c3ccc(Cl)cc3Cl)c2O1 (racemic) [Example 445, (±)-[7-(2,4-dichlorophenyl)-5-fluoro-2,3-dihydro-1-benzofuran-2-yl]methyl}methylamine]",0.48,1,–,–,90

# Reference: patent US7435837B2, “Dihydrobenzofuranyl alkanamine derivatives and methods for using same” (Wyeth, priority 2003, dated 2008)
